Reference: PMC12305494, “Discovery of PXR Antagonist MI891 and PXR Degrader MI1013 and Their Roles in Hepatic Gene Regulation” (Journal of Medicinal Chemistry, 2025)
“And” between values parts separate entries of the source, which are not always exact repeats. Equal values may be shown once.

Columns and labels:
LXRβ = target: T1, LXRβ (Homo sapiens, UniProt P55055); experiment: LXRβ luciferase reporter assay, agonistic and antagonistic setups; assay type: cell-based; details: prototype ligand GW3965
T1 construct: expressed in transfected cells
T1 sequence (P55055 222-460 limits assumed): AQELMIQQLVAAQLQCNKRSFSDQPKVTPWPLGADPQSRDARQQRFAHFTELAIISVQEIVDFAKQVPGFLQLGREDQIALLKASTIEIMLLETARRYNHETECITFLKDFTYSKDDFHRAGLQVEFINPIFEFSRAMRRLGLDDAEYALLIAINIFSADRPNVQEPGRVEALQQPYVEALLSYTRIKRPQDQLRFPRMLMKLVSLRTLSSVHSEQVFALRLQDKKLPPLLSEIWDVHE
Experimental: (§1) For the farnesoid X receptor (FXR) luciferase gene reporter assay, the full-length expression vector was paired with pFXRE-luc luciferase construct. The p1A1-luc construct was used in the aryl hydrocarbon receptor (AhR) assays with pRL-TK for normalization. Gal4-LXR-α/β, and Gal4-PPAR-γ constructs were used with the pGAL4 UAS-luc construct. For the VDR assay, expression vector pSG5-hVDR together with pVDRE-luc constructs was used. Firefly and Renilla luciferase activities were analyzed using a Dual reporter assay (Promega). For the nuclear receptor assays, prototype ligands were used at the following concentrations: Calcitriol for VDR (100 nM), GW3965 for LXRα and LXRβ (10 μM), 6-OCA for FXR (1 μM), fenofibrate for PPARα (10 μM), estradiol for ERα and β (10 μM), rosiglitazone for PPARγ (10 μM), 3-MC for AhR (5 μM), and TCPOBOP for mCAR (10 μM). Detailed descriptions and protocols are detailed in our recent publication. ,

[1] = target: T2, farnesoid X receptor (FXR) (Homo sapiens, UniProt Q96RI1); experiment: FXR luciferase reporter assay, agonistic and antagonistic setups; assay type: cell-based; details: prototype ligand 6-OCA
T2 construct: the full-length expression vector was paired with pFXRE-luc luciferase construct; expressed in transfected cells
T2 sequence (Q96RI1 whole entry): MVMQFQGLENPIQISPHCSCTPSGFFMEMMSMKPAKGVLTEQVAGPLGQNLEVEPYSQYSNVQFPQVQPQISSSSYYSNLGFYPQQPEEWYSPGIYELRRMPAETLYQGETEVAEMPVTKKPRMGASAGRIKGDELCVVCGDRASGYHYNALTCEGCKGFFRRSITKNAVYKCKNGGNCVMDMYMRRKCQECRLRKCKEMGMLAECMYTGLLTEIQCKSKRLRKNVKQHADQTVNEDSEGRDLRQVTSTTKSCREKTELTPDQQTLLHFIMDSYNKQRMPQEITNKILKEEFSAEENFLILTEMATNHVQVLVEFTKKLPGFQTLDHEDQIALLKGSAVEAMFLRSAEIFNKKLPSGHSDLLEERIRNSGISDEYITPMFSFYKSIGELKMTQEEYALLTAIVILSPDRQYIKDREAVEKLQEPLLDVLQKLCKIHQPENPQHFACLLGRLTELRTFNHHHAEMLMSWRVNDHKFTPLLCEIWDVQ
Experimental: as §1

[2] = target: T3, human wild-type CAR (CARwt) (Homo sapiens, UniProt Q14994); experiment: CARwt luciferase reporter gene assay in HepG2; assay type: cell-based
T3 construct: expressed in transfected cells; host or cells: HepG2
T3 sequence (Q14994 1-348 isoform Q14994-2): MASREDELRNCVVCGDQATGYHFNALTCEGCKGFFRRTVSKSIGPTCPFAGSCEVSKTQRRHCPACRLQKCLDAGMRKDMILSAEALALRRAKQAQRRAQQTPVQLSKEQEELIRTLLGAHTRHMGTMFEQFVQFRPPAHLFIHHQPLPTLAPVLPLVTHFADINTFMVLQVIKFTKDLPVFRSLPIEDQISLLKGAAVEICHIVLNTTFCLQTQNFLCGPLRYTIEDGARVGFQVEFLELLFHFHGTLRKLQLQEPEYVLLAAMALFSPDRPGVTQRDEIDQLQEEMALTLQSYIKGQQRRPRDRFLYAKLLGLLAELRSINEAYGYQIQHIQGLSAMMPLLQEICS
Experimental: Rhesus monkey, mouse, and rat PXR expression vectors (100 ng/well each) were also obtained from GenScript. […] Carlberg (University of Kuopio, Kuopio, Finland).
The cells were cultured in DMEM medium (Merck) supplemented with 10% fetal bovine serum.

vitamin D receptor (VDR) = target: T4, vitamin D receptor (VDR) (Homo sapiens, UniProt P11473); experiment: VDR luciferase reporter assay, agonistic and antagonistic setups; assay type: cell-based; details: prototype ligand calcitriol
T4 construct: expressed in transfected cells
T4 sequence (P11473 whole entry): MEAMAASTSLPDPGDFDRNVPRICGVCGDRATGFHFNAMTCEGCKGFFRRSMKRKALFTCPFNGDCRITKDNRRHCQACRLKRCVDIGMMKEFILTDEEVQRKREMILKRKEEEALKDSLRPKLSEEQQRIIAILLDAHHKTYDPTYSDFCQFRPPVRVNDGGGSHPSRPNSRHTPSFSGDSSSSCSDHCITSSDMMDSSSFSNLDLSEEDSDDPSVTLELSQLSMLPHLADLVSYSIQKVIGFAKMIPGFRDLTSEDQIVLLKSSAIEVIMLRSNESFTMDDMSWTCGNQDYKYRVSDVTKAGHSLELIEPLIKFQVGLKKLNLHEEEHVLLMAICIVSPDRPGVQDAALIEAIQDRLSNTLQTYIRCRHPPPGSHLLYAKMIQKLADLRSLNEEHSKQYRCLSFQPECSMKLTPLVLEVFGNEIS
Experimental: as §1

PXR-eGFP = target: T5, PXR-eGFP (Homo sapiens, UniProt O75469); experiment: Microscale thermophoresis (MST); assay type: binding; details: COS-1 cell lysate expressing PXR-eGFP
T5 construct: expressed in transfected cells; host or cells: COS-1 (lysate used)
T5 sequence (O75469 whole entry): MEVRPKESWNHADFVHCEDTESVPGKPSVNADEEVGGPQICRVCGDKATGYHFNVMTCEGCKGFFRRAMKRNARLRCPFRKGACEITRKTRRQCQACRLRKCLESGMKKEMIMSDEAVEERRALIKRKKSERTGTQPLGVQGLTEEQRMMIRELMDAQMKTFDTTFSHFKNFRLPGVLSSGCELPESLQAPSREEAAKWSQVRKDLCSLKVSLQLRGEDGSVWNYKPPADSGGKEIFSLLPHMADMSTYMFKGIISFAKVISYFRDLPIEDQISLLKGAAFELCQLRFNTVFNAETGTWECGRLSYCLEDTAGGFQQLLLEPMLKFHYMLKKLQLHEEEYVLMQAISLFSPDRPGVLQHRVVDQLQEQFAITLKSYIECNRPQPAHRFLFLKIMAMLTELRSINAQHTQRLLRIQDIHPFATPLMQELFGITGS
Experimental: Microscale Thermophoresis (MST) experiments were conducted using the Monolith NT.115 (201810-BR-N006) (Blue/Red) instrument from NanoTemper Technologies GmbH, Germany. Cell lysates from COS-1 cells expressing PXR-eGFP served as the source of fluorescently labeled PXR, allowing the study of proteins in near-native conditions. COS-1 cells were transfected with 1000 ng of GFP-fused PXR (PXR-eGFP) using Lipofectamine 3000 and lysed 48 h post-transfection with RIPA buffer. To assess MI891 binding to PXR, cell lysates were diluted 2x with MST buffer (10 mM Na-phosphate buffer, pH 7.4, 1 mM MgCl2, 3 mM KCl, 150 mM NaCl, 0.05% Tween-20) to achieve optimal fluorescence levels. A titration series of MI891 (0–30 μM) was incubated with the diluted cell lysates. Measurements were taken in premium-coated capillaries (NanoTemper Technologies GmbH, MO-K025) using an LED source (Blue LED: Ex: 470(±10)/Em: 520(±10) nm) with an excitation wavelength of 470 nm and a 50% maximum stimulation time (MST). The excitation power was […]. Binding affinity was evaluated using the Hill model, with each data point representing mean fraction bound values from three independent experiments. The bound fraction of PXR-eGFP was determined, and fitting was performed using the Hill model method in MO Affinity Analysis v2.3 software (NanoTemper Technologies). […]

[3] = Plasma stability, mouse plasma; assay type: in vitro ADME; details: up to 120 min, read-out: Plasma stability, t1/2 (min), mouse
Experimental: The protocols and reagents for the plasma protein binding assay and metabolic stability testing in human and mouse liver microsomes are detailed in our previous report. Briefly, metabolic stability of compounds was assessed at a single concentration (5 μM) at t = 0, 10, 30, and at t = 45 min. The stability of compounds was tested in human and mouse microsomes (ThermoFisher Scientific). Compounds were tested in triplicate with or without NADPH wells as a negative control for cytochrome P450 metabolism. In addition to hepatic metabolism, compounds were also subjected to degradation/modification by enzymes in human (VWR International) and mouse (Biomedica, CZ) plasma for t = 0, 30, 60, and at t = 120 min. Each assay included a substrate with known activity as a positive control. Time points were analyzed by LC/MS/MS. The peak area for the parent compound is compared to the time zero sample in order to assess the amount of remaining compound.

human CAR LBD = target: T6, human CAR LBD (Homo sapiens, UniProt Q14994); experiment: CAR LBD assembly assay (CAR AA); assay type: cell-based
T6 construct: constructs encoding helices 3–12 and helix 1 of human CAR LBD; expressed in transfected cells; host or cells: HepG2
T6 sequence (Q14994 103-150 isoform Q14994-2 limits assumed): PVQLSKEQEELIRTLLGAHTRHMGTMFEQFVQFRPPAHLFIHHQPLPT
T6 sequence (Q14994 151-348 isoform Q14994-2 limits assumed): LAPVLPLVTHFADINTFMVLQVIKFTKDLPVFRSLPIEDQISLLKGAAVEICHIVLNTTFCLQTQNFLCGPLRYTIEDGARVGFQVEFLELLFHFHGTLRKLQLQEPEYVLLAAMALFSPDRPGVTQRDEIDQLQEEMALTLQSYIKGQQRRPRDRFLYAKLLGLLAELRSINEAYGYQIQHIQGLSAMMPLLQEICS
Excerpt: The CAR LBD assembly assay used constructs encoding helices 3–12 and helix 1 of human CAR LBD as described before. GL4.31[luc2P/GAL4UAS/Hygro] (pGAL4 UAS-luc) luciferase reporter vector and pRL-TK Renilla expression vector (Promega) were used in the assay in HepG2 cells transfected using Lipofectamine 3000.

## NC(=O)c1cc(Cn2cc(-c3c(-c4ccc(Cl)cc4)nc4c(F)cc(F)cn34)nn2)ccc1Cl [Compound 11, 2-Chloro-5-((4-(2-(4-chlorophenyl)-6,8-difluoroimidazo[1,2-a]pyridin-3-yl)-1H-1,2,3-triazol-1-yl)methyl)-benzamide]
LXRβ
  agonistic or antagonistic activity on LXRβ: no significant agonistic or antagonistic activities
[1]
  agonistic or antagonistic activity on FXR: no significant agonistic or antagonistic activities
[2]; HepG2, read-out: CARwt activation EC50
  EC50: ~137 µM and 137 µM
[2]; at concentrations up to 10 μM
  activation of CARwt: no significant activation
Vitamin D receptor (VDR)
  agonistic or antagonistic activity on VDR: no significant agonistic or antagonistic activities
PXR-eGFP
  Kd: 1.7 µM
[3]
  half-life: > 120 min
Human CAR LBD; at 10 μM concentration
  activation of CAR LBD assembly: lack of significant (p value 0.07) activation
Human CAR LBD; na = no activity, tox = cytotoxicity in HepG2 cells
  EC50: > 10 µM
